Test results reported in patent US8598168B2 (MethylGene Inc., priority 2006, dated 2013).

Tests used:
[1] = Log D (comparison with previously disclosed compounds); assay type: physicochemical; conditions: pH 7.4
[2] = system: human colon cancer HCT116 cells; experiment: MTT Assay; assay type: cell-based; conditions: HCT-116, 72 hours, Table 21
Protocol: Compounds at various concentrations were added to human colon cancer HCT116 cells plated in 96-well plates. Cells were incubated for 72 hours at 37° C. in 5% CO2 incubator. MTT (3-[4,5-dimethylthiazol-2-yl]-2,5 diphenyl tetrazolium bromide, Sigma) was added at a final concentration of 0.5 mg/ml and incubated with the cells for 4 hours before an equal volume of solubilization buffer (50% N,N-dimethylformamide, 20% SDS, pH 4.7) was added onto cultured cells. After overnight incubation, solubilized dye was quantified by colorimetric reading at […] using a reference at 630 nM. OD values were converted to cell numbers according to a standard growth curve of the relevant cell line. The concentration which reduces cell numbers to 50% of those of DMSO-treated cells is determined as MTT IC50.

[3] = target: HDAC-1 (Homo sapiens, UniProt Q13547); experiment: Inhibition of Histone Deacetylase Enzymatic (HDAC-1) Activity; assay type: biochemical; conditions: Table 21
Sequence of HDAC-1 (Q13547 whole entry): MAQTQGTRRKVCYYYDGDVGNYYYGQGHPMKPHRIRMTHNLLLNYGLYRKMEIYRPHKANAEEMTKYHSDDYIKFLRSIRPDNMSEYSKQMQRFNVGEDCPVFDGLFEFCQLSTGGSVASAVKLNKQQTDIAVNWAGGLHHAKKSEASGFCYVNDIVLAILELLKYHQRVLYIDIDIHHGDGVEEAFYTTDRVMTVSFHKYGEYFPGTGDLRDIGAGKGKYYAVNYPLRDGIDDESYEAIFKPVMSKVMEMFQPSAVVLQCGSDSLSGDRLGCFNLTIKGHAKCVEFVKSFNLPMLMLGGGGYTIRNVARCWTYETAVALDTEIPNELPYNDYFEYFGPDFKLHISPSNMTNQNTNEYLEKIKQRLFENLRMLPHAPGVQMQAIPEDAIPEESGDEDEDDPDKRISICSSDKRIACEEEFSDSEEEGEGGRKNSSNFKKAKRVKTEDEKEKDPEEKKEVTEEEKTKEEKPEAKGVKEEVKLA
Protocol: The following protocol was used to assay the compounds of the invention.
The mixture was pre-incubated for 5 minutes at room temperature. The reaction was started by bringing the temperature to 37° C. and adding 15 μl substrate. Total reaction volume was 50 μl.

Structure (SMILES): CN(C)CCN(C)Cc1ccc(C(=O)Nc2cc(-c3cccs3)ccc2N)cc1 [compound 18, N-(2-amino-5-(thiophen-2-yl)phenyl)-4-(((2-(dimethylamino)ethyl)(methyl)amino)methyl)benzamide]
- logD [1]: 1.64
- IC50 [2]: < 1000 nM
- IC50 [3]: < 1000 nM

Structure (SMILES): Nc1ccc(-c2cccs2)cc1NC(=O)c1ccc(CN2CCCCC2)cc1 [compound 12, N-(2-amino-5-(thiophen-2-yl)phenyl)-4-(piperidin-1-ylmethyl)benzamide]
- logD [1]: 3.86
- IC50 [2]: 1000 to 5000 nM
- IC50 [3]: < 1000 nM

Structure (SMILES): CN(C)CCOC(=O)NCc1ccc(C(=O)Nc2cc(-c3cccs3)ccc2N)cc1 [compound 221, 2-(Dimethylamino)ethyl 4-(2-amino-5-(thiophen-2-yl)phenylcarbamoyl)benzylcarbamate]
- logD [1]: 1.85
- IC50 [2]: < 1000 nM
- IC50 [3]: < 1000 nM

Structure (SMILES): CC(=O)N[C@H]1CCN(Cc2ccc(C(=O)Nc3cc(-c4cccs4)ccc3N)cc2)C1 [compound 87, (S)-4-((3-acetamido-pyrrolidin-1-yl)methyl)-N-(2-amino-5-(thiophen-2-yl)phenyl)-benzamide]
- logD [1]: 2.15
- IC50 [2]: < 1000 nM
- IC50 [3]: < 1000 nM

Structure (SMILES): Nc1ccc(-c2cccs2)cc1NC(=O)c1ccc(CN2CC[C@H](Nc3cccnc3)C2)cc1 [compound 249, (S)—N-(2-Amino-5-(thiophen-2-yl)phenyl)-4-((3-(pyridin-3-ylamino)pyrrolidin-1-yl)methyl)benzamide]
- logD [1]: 3.27
- IC50 [2]: < 1000 nM
- IC50 [3]: < 1000 nM

Structure (SMILES): COCCN(CCOC)Cc1ccc(C(=O)Nc2cc(-c3cccs3)ccc2N)cc1 [compound 10, N-(2-amino-5-(thiophen-2-yl)phenyl)-4-((bis(2-methoxyethyl)amino)methyl)benzamide]
- logD [1]: 3.1
- IC50 [2]: < 1000 nM
- IC50 [3]: < 1000 nM

Structure (SMILES): Nc1ccc(-c2cccs2)cc1NC(=O)c1ccc(CN2CCN(c3ccccn3)CC2)cc1 [compound 89, N-(2-amino-5-(thiophen-2-yl)phenyl)-4-((4-(pyridin-2-yl)piperazin-1-yl)methyl)-benzamide]
- logD [1]: 3.38
- IC50 [2]: < 1000 nM
- IC50 [3]: < 1000 nM

Structure (SMILES): Nc1ccc(-c2cccs2)cc1NC(=O)c1ccc(CN2CCN(CCn3ccnc3)CC2)cc1 [compound 80, 4-((4-(2-(1H-imidazol-1-yl)ethyl)-piperazin-1-yl)-methyl)-N-(2-amino-5-(thiophen-2-yl)phenyl)-benzamide]
- logD [1]: 1.54
- IC50 [2]: < 1000 nM
- IC50 [3]: < 1000 nM

Structure (SMILES): Nc1ccc(-c2cccs2)cc1NC(=O)c1ccc(CN2CCN(C3CCCC3)CC2)cc1 [compound 16, N-(2-amino-5-(thiophen-2-yl)phenyl)-4-((4-cyclopentylpiperazin-1-yl)methyl)benzamide]
- logD [1]: 3.3
- IC50 [2]: < 1000 nM
- IC50 [3]: < 1000 nM

Structure (SMILES): CCN(CC)Cc1ccc(C(=O)Nc2cc(-c3cccs3)ccc2N)cc1 [compound 79, N-(2-amino-5-(thiophen-2-yl)phenyl)-4-((diethylamino)-methyl)benzamide]
- logD [1]: 3.19
- IC50 [2]: < 1000 nM
- IC50 [3]: < 1000 nM

Structure (SMILES): Nc1ccc(-c2cccs2)cc1NC(=O)N1CCN(Cc2ccc3c(c2)OCO3)CC1 [compound 316, N-(2-Amino-5-(thiophen-2-yl)phenyl)-4-(benzo[d][1,3]dioxol-5-ylmethyl)piperazine-1-carboxamide]
- logD [1]: 2.32
- IC50 [3]: < 1000 nM

Structure (SMILES): CC(=O)N[C@@H]1CCN(Cc2ccc(C(=O)Nc3cc(-c4cccs4)ccc3N)cc2)C1 [compound 84, (R)-4-((3-acetamido-pyrrolidin-1-yl)methyl)-N-(2-amino-5-(thiophen-2-yl)phenyl)-benzamide]
- logD [1]: 2.15
- IC50 [2]: < 1000 nM
- IC50 [3]: < 1000 nM

Structure (SMILES): Nc1ccc(-c2cccs2)cc1NC(=O)c1ccc(CN2CCN(Cc3ccccc3)CC2)cc1 [compound 91, N-(2-amino-5-(thiophen-2-yl)phenyl)-4-((4-benzylpiperazin-1-yl)methyl)-benzamide]
- logD [1]: 4.01
- IC50 [2]: < 1000 nM
- IC50 [3]: < 1000 nM

Structure (SMILES): CN1CCN(Cc2ccc(C(=O)Nc3cc(-c4cccs4)ccc3N)cc2)CC1 [compound 78, N-(2-amino-5-(thiophen-2-yl)phenyl)-4-((4-methylpiperazin-1-yl)methyl)-benzamide]
- logD [1]: 2.29
- IC50 [2]: < 1000 nM
- IC50 [3]: < 1000 nM

Structure (SMILES): Nc1ccc(-c2cccs2)cc1NC(=O)c1ccc(N2CCC(N3CCOCC3)CC2)cc1 [compound 104, N-(2-amino-5-(thiophen-2-yl)phenyl)-4-(4-morpholino-piperidin-1-yl)benzamide]
- logD [1]: 2.51
- IC50 [2]: < 1000 nM
- IC50 [3]: < 1000 nM

Structure (SMILES): COCCN1CCN(Cc2ccc(C(=O)Nc3cc(-c4cccs4)ccc3N)cc2)CC1 [compound 13, N-(2-amino-5-(thiophen-2-yl)phenyl)-4-((4-(2-methoxyethyl)piperazin-1-yl)methyl)benzamide]
- logD [1]: 2.22
- IC50 [2]: < 1000 nM
- IC50 [3]: < 1000 nM

Structure (SMILES): CN(C)[C@H]1CCN(c2ccc(C(=O)Nc3cc(-c4cccs4)ccc3N)cc2)C1 [compound 101, (S)—N-(2-Amino-5-(thiophen-2-yl)phenyl)-4-(3-(dimethylamino)pyrrolidin-1-yl)benzamide]
- logD [1]: 1.94
- IC50 [2]: < 1000 nM
- IC50 [3]: < 1000 nM

Structure (SMILES): Nc1ccc(-c2cccs2)cc1NC(=O)c1ccc(CN2CCC[C@H]2CN2CCCC2)cc1 [compound 86, (S)-N-(2-amino-5-(thiophen-2-yl)phenyl)-4-((2-(pyrrolidin-1-ylmethyl)-pyrrolidin-1-yl)methyl)-benzamide]
- logD [1]: 0.86
- IC50 [2]: < 1000 nM
- IC50 [3]: < 1000 nM

Structure (SMILES): Nc1ccc(-c2cccs2)cc1NC(=O)c1ccc(CN2CCN(c3ccncc3)CC2)cc1 [compound 85, N-(2-amino-5-(thiophen-2-yl)phenyl)-4-((4-(pyridin-4-yl)piperazin-1-yl)methyl)-benzamide]
- logD [1]: 3.32
- IC50 [2]: < 1000 nM
- IC50 [3]: < 1000 nM

Structure (SMILES): Nc1ccc(-c2cccs2)cc1NC(=O)c1ccc(N2CCN(C3CCCC3)CC2)cc1 [compound 103, N-(2-amino-5-(thiophen-2-yl)phenyl)-4-(4-cyclopentyl-piperazin-1-yl)-benzamide]
- logD [1]: 2.68
- IC50 [2]: < 1000 nM
- IC50 [3]: < 1000 nM

Structure (SMILES): CN(C)[C@@H]1CCN(Cc2ccc(C(=O)Nc3cc(-c4cccs4)ccc3N)cc2)C1 [compound 9, (R)—N-(2-Amino-5-(thiophen-2-yl)phenyl)-4-((3-(dimethylamino)pyrrolidin-1-yl)methyl)benzamide]
- logD [1]: 2.11
- IC50 [2]: < 1000 nM
- IC50 [3]: < 1000 nM

Structure (SMILES): Nc1ccc(-c2cccs2)cc1NC(=O)c1ccc(CN2CC[C@H](O)C2)cc1 [compound 82, (S)-N-(2-amino-5-(thiophen-2-yl)phenyl)-4-((3-hydroxy-pyrrolidin-1-yl)methyl)-benzamide]
- logD [1]: 2.6
- IC50 [2]: < 1000 nM
- IC50 [3]: < 1000 nM

Structure (SMILES): CCN(CC)CCSc1ccc(C(=O)Nc2cc(-c3cccs3)ccc2N)cc1 [compound 107, N-(2-amino-5-(thiophen-2-yl)phenyl)-4-(2-(diethyl-amino)-ethylthio)-benzamide]
- logD [1]: 2.58
- IC50 [3]: < 1000 nM

Structure (SMILES): Nc1ccc(-c2ccccc2)cc1NC(=O)C1CCN(S(=O)(=O)c2ccc([N+](=O)[O-])cc2)CC1 [compound 320, N-(4-Aminobiphenyl-3-yl)-1-(4-nitrophenylsulfonyl)piperidine-4-carboxamide]
- logD [1]: 3.21
- IC50 [3]: < 1000 nM
